Assay results: patent US5998173A, “Process for producing N-acetyl-D-glucosamine” (The University of Bristish Columbia, priority 1996, dated 1999)

Key:
[1] = test system: Serratia marcescens QM B1466 chitinases (total chitinase activity, EC 3.2.1.14) in culture supernatant; assay: Chitinase activity assay with pNP-(NAG)2 in the presence of increasing N-acetyl-D-glucosamine (end-product inhibition); assay type: biochemical; conditions: 40-mM NAG in the assay media, p-nitrophenyl substrate analog, 10 min
Experimental: (§1) FIG. 15a illustrates assays of chitinase (.box-solid.) and chitobiase (.diamond-solid.) in the presence of increasing amounts of N-acetyl-D-glucosamine (NAG). The activity values are expressed as percentage of the initial uninhibited values ([NAG]=0).
Chitinase activity was also determined by using the analog p-nitrophenyl-β-D-N,N'-diacetylchitobiose (pNP-(NAG)2) (Sigma). The assay was performed in triplicate using ELISA plates and contained 50 μL of 100 mM KH2 PO4 buffer containing 1-mM CaCl2 at pH 6.0, 50 μL of pNP(NAG)2 dissolved in nanopure water (400 μg/ml) and 20 μL of enzyme diluted in the same buffer. After 10 minutes of incubation samples were read at 405 nm using an ELISA plate reader. Blanks were used to discount any absorption due to the enzyme or pNP-(NAG)2 alone. The μmoles of p-nitrophenol released by the samples was calculated using a standard curve. Units of enzymatic activity were determined as the number of μmoles of p-nitrophenol released per minute under the assay conditions.
End-product inhibition was tested using p-nitrophenyl substrate-analogs to assay chitinase and chitobiase activities in the presence of increasing concentrations of N-acetyl-D-glucosamine (NAG). The results shown in FIG. 15a indicate that both activities in culture supernatant are inhibited by the end product (NAG). […]

[2] = target: T1, Serratia marcescens QM B1466 chitobiase (EC 3.2.1.29) in culture supernatant (Serratia marcescens, UniProt Q54468); assay: Chitobiase activity assay with pNP-NAG in the presence of N-acetyl-D-glucosamine (end-product inhibition, Eadie-Hofstee analysis); assay type: biochemical
T1 construct: assaying chitobiase activity in S. marcescens culture supernatant over a wide range of substrate concentrations; endogenous in cells; host or cells: Serratia marcescens QM B1466, grown on chitin; enzyme in culture supernatant, not purified
T1 sequence (Q54468 28-885): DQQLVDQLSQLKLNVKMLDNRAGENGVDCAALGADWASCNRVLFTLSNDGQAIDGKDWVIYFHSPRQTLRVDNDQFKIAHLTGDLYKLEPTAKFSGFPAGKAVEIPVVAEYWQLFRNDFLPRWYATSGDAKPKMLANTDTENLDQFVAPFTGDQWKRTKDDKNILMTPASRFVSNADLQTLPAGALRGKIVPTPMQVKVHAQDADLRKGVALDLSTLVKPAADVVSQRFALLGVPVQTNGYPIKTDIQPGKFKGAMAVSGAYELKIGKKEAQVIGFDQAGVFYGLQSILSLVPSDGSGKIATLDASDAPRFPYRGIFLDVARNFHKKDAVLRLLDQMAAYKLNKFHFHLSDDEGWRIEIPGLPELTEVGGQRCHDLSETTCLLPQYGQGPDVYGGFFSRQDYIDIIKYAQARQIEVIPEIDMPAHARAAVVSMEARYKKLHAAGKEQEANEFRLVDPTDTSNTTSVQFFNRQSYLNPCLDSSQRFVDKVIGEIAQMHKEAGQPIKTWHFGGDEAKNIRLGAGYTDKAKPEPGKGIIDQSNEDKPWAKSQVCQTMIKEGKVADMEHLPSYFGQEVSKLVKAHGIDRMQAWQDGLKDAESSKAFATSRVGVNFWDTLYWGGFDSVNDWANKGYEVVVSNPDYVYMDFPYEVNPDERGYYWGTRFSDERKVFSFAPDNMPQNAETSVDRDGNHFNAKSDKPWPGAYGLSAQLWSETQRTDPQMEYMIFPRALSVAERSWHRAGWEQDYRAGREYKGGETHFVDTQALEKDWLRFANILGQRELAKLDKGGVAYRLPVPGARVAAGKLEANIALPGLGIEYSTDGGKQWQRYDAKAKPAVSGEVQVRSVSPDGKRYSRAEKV
Description: as §1
FIG. 15b illustrates assays of chitobiase from S. marcescens crude extracts using a range of p-nitrophenyl N-acetyl-β-D-glucosaminide concentrations with or without the addition of a fixed amount of N-acetyl-D-glucosamine (NAG). (.box-solid.) 0.00 mM NAG; (.circle-solid.) 0.21 mM NAG; (Δ) 0.42 mM NAG; (.gradient.) 0.83 mM NAG; and (.diamond-solid.) 1.67 mM NAG.
Chitobiase activity was determined by measuring the amount of p-nitrophenolreleased when an aliquot of enzyme solution (culture supernatant) was incubated with an aqueous solution of p-nitrophenyl-N-acetyl-β-D-glucosamine (pNP-NAG) (Sigma). The buffer used in this assay was 85-mM Tris(hydroxymethylaminomethane)-malate, pH 7.0. […] The liberated p-nitrophenol was spectrophotometrically measured at 405 nm in an ELISA plate reader. […]
The nature of chitobiase inhibition by N-acetyl-D-glucosamine was determined by assaying chitobiase activity in S. marcescens culture supernatant over a wide range of substrate concentrations, with and without the addition of fixed amounts of N-acetyl-D-glucosamine. […]

For `CC(=O)N[C@H]1C(O)O[C@H](CO)[C@@H](O)[C@@H]1O` (stereo partly drawn) [N-acetyl-D-glucosamine, 2-acetamido-2-deoxy-D-glucose], which “total chitinase activity lost” value [1] is on record?
The value was 30%.

And the inhibition at 40000 µM ([2]; 10 min, pH 7, 40-mM NAG in the assay media, p-nitrophenyl substrate analog, culture supernatant, read-out: chitobiase activity drop)?
The inhibition at 40000 µM was 70%.

And the Ki ([2]; noncompetitive inhibition, substrate p-nitrophenyl N-acetyl-β-D-glucosaminide, 0-1.67 mM NAG, calculated from Eadie-Hofstee analysis, read-out: inhibition constant Ki)?
The Ki was 1 mM.
